{
  "source": "patent US20070248705A1",
  "about": "“Agents for Activating the Transcription Factor Nrf2 and Foods Having Such Function” (KIRIN BEER KABUSHIKI KAISHA, priority 2004, published 2007)",
  "key": {"[1]": {"system": "quinone reductase (QR) activity in mouse hepatoma Hepa1c1c7 cells", "experiment": "Induction of quinone reductase (QR) activity", "format": "cell-based", "settings": "Hepa1c1c7 cells, 0.6, 1.7, 5, and 15 μM, 48 hours; listed as HI (F)", "protocol": "It has been known that quinone reductase (QR) activity is increased by increasing the expression of NAD(P)H:quinone oxidoreductase (NQO1) by Nrf2 activation (Proc Natl Acad Sci USA. 101, 10446-51 (2004)). Accordingly, isohumulones were allowed to act on mouse hepatoma Hepa1c1c7 cells (available from Dainippon Pharmaceutical Co., Ltd.) to examine whether the QR activity was induced.\nThe QR activity was measured in accordance with the method described in Analytical Biochemistry 169, 328-336 (1988).\nA mouse hepatoma cell line Hepa1c1c7 was seeded on a 96-well plate (7-10×10^3 cells/well), 50 μl each of an α-MEM medium (Invitrogen) supplemented with 10% fetal bovine serum (HyClone) and penicillin-streptomycin (100 units/ml and 100 μg/ml, respectively; Sigma) was added, and the plate was incubated at […] in an atmosphere of 5% CO2 overnight. Next, the culture medium was replaced with a medium containing isomerized hop extract individually at a concentration of 1.9, 5.6, 16.7, or 50 μg/ml, or with a medium containing humulone (H), cohumulone (cH), adhumulone (aH), isohumulone (IH), isohumulone (IcH), or isohumulone (IaH) individually at a concentration of 0.6, 1.7, 5, and 15 μM and the plate was further incubated for 48 hours. Then, the cells in each well were broken using 0.08% digitonin and a 2 mM EDTA solution and absorption at 610 nm was measured by a menadione-formazan system using a microplate reader (Power Wave 200, Bio-Tek Instruments).\nThe QR inducing activity was calculated as a relative activity setting the activity of cells without addition to be 1 (n=3, mean±standard variation). Sulforaphane (Sul, available from Sigma) was used as a positive control."}, "[2]": {"system": "glutathione S-transferase pi2 (GSTP2)", "experiment": "Expression of genes controlled by Nrf2 in RAW264.7: GSTP2", "format": "cell-based, mouse", "settings": "RAW264.7, 25 μM, 20 hours", "protocol": "A mouse macrophage cell line RAW264.7 was seeded on a φ60 mm dish (9×10^5 cells), 2 ml of a D-MEM medium (Invitrogen) supplemented with 10% fetal bovine serum (HyClone) and penicillin-streptomycin (100 units/ml and 100 μg/ml, respectively; Sigma) was added, and the dish was incubated at 37° C. in an atmosphere of 5% CO2 for 2 days. The medium was replaced with a fresh medium containing individual samples and incubation was continued for another 20 hours. Then, the total RNA was prepared using TRIzol (Invitrogen) and purified using a RNeasy Mini kit (Qiagen) and an RNase-free DNase set (Qiagen). Further, cDNA was synthesized from 5 μg of the purified total RNA using a Thermo Script RT-PCR system (Invitrogen), and the amount of mRNA expression of various genes was determined using a FastStart DNA Master SYBR Green I kit (Roche) and a Light Cycler (Roche).\nThe amount of expression of the various genes was corrected by the amount of expression of the housekeeping gene PO and calculated as a relative expression level (n=2, mean±standard deviation). […]"}},
  "data": [
    {"smiles": "CC(C)=CCC(=O)C1(O)C(O)=C(C(=O)CC(C)C)C(=O)C1CC=C(C)C", "note": "(centres unmarked) [IH (F), isohumulone]", "values": [
      {"measurement": "QR inducing activity", "setting": "[1]", "result": "activity was higher in isohumulones having a higher trans form content"},
      {"measurement": "expression of GSTP2", "setting": "[2]", "result": "augmented the expression"}
    ]}
  ]
}
